Measured values from patent EP4707280A1, “1,4-CINEOLE DERIVATIVE AND INTERMEDIATE THEREOF, HERBICIDE CONTAINING SAID DERIVATIVE AS ACTIVE INGREDIENT, METHOD FOR USING HERBICIDE, AND METHOD FOR PREPARING AGROCHEMICAL COMPOSITION” (HOKKO CHEMICAL INDUSTRY CO., LTD., priority 2023, dated 2024).

Key:
Assay type in all cases: in vivo
Echinochloa crus-galli [1] = assay: Test Example 4: herbicidal effect test by stem and leaf treatment in upland field; conditions: Echinochloa crus-galli; 120 g per 10 ares; sprayed seven days after sowing, upland soil; 14 days after application; read-out: weed inhibition rate
[2] = system: Echinochloa crus-galli var. formosensis; assay: Test Example 5: herbicidal effect test by soil application in paddy rice (low dose); conditions: Echinochloa crus-galli, soil, 336 h; 7.5 g per 10 ares; applied immediately after sowing, flooded pots; 14 days after application; read-out: weed inhibition rate
Procedure, shortened: (§1)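 Flooded-paddy soil application at low dose (7.5 g a.i. per 10 ares), given by dropper as diluted emulsifiable concentrate directly after sowing weeds 0–1 cm deep. Effect evaluated after 14 days in duplicate.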

Scirpus juncoides [3] = assay: as above; conditions: Schoenoplectiella juncoides, 336 h, 7.5 g per 10 ares, applied immediately after sowing, flooded pots, 14 days after application, read-out: weed inhibition rate
Procedure, shortened: as §1

Monochoria vaginalis [4] = assay: as above; conditions: Pontederia vaginalis, 336 h, 7.5 g per 10 ares, applied immediately after sowing, flooded pots, 14 days after application, read-out: weed inhibition rate
Procedure, shortened: as §1

[5] = system: Echinochloa crus-galli var. formosensis; assay: Test Example 1: herbicidal effect test by soil application in paddy rice; conditions: Echinochloa crus-galli, soil, 336 h; 120 g active ingredient per 10 ares; applied immediately after sowing, flooded pots; 14 days after application; read-out: weed inhibition rate
Procedure, shortened: (§2)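 Paddy soil in Wagner pots (1/10,000 acre) was fertilized (N:P:K 16:16:16) and puddled, then weed seeds were sown 0–1 cm deep, 30 each. Pots were flooded to ~3 cm and kept in a glass greenhouse. Emulsifiable concentrate diluted in water was dropped on immediately after sowing at 120 g a.i. per 10 ares.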

Scirpus juncoides [6] = assay: as above; conditions: Schoenoplectiella juncoides, soil, 336 h; 120 g active ingredient per 10 ares; applied immediately after sowing, flooded pots; 14 days after application; read-out: weed inhibition rate
Procedure, shortened: as §2

[7] = system: Echinochloa crus-galli var. formosensis; assay: Test Example 2: herbicidal effect test by application during growth period of paddy rice; conditions: Echinochloa crus-galli; 120 g per 10 ares; applied seven days after sowing, flooded pots; 14 days after application; read-out: weed inhibition rate
Procedure, shortened: (§3)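 Steps: puddle fertilized paddy soil; sow 30 seeds of each weed at 0–1 cm; flood to roughly 3 cm and keep in a glasshouse; at day 7 drop in diluted emulsifiable concentrate (120 g a.i. per 10 ares); score inhibition (%) 14 days later, two replicates.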

Scirpus juncoides [8] = assay: as above; conditions: Schoenoplectiella juncoides; 120 g per 10 ares; applied seven days after sowing, flooded pots; 14 days after application; read-out: weed inhibition rate
Procedure, shortened: as §3

Monochoria vaginalis [9] = assay: as above; conditions: Pontederia vaginalis; 120 g per 10 ares; applied seven days after sowing, flooded pots; 14 days after application; read-out: weed inhibition rate
Procedure, shortened: as §3

Monochoria vaginalis [10] = assay: Test Example 1: herbicidal effect test by soil application in paddy rice; conditions: Pontederia vaginalis, soil, 336 h; 120 g active ingredient per 10 ares; applied immediately after sowing, flooded pots; 14 days after application; read-out: weed inhibition rate
Procedure, shortened: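 Pre-emergence test in puddled, flooded paddy soil (about 3 cm water), 30 seeds per weed sown at 0–1 cm depth in a glass greenhouse. Emulsifiable concentrate diluted in water and dropped onto the pots straight after sowing at 120 g a.i. per 10 ares. Weed inhibition (%) scored at 14 days, in duplicate.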

Echinochloa crus-galli [11] = assay: Test Example 8: herbicidal effect test by stem and leaf treatment in upland field (low dose); conditions: Echinochloa crus-galli; 7.5 g per 10 ares; sprayed seven days after sowing, upland soil; 14 days after application; read-out: weed inhibition rate
Digitaria ciliaris = assay: as above; conditions: Digitaria ciliaris; 7.5 g per 10 ares; sprayed seven days after sowing, upland soil; 14 days after application; read-out: weed inhibition rate

CC(C)[C@]12C[C@@H](OCc3ccccc3F)[C@](C)(C[C@@H]1F)O2 [1-5, (1R,2S,4S,5R)-2-fluoro-5-((2-fluorobenzyl)oxy)-1-isopropyl-4-methyl-7-oxabicyclo[2.2.1]heptane]
≥ 80%: inhibition at 1200 g/ha (Echinochloa crus-galli [1]) | inhibition at 75 g/ha [2] | inhibition at 75 g/ha (Scirpus juncoides [3]) | inhibition at 75 g/ha (Monochoria vaginalis [4]) | pest or weed control at 1200 g/ha [5] | pest or weed control at 1200 g/ha (Scirpus juncoides [6]) | inhibition at 1200 g/ha [7] | inhibition at 1200 g/ha (Scirpus juncoides [8]) | inhibition at 1200 g/ha (Monochoria vaginalis [9]) | pest or weed control at 1200 g/ha (Monochoria vaginalis [10]) | inhibition at 75 g/ha (Echinochloa crus-galli [11]) | inhibition at 75 g/ha (Digitaria ciliaris)

Cc1ccccc1CO[C@@H]1C[C@]2(C(C)C)O[C@@]1(C)C[C@@H]2O [1-24, (1R,2S,4S,5R)-1-isopropyl-4-methyl-5-((2-methylbenzyl)oxy)-7-oxabicyclo[2.2.1]heptan-2-ol]
≥ 80%: inhibition at 1200 g/ha (Echinochloa crus-galli [1]) | inhibition at 75 g/ha [2] | inhibition at 75 g/ha (Scirpus juncoides [3]) | inhibition at 75 g/ha (Monochoria vaginalis [4]) | pest or weed control at 1200 g/ha [5] | pest or weed control at 1200 g/ha (Scirpus juncoides [6]) | inhibition at 1200 g/ha [7] | inhibition at 1200 g/ha (Scirpus juncoides [8]) | inhibition at 1200 g/ha (Monochoria vaginalis [9]) | pest or weed control at 1200 g/ha (Monochoria vaginalis [10]) | inhibition at 75 g/ha (Echinochloa crus-galli [11]) | inhibition at 75 g/ha (Digitaria ciliaris)

CC(C)[C@]12C[C@@H](OCc3c(F)cccc3F)[C@](C)(CC1=O)O2 [2-20, (1R,4S,5R)-5-((2,6-difluorobenzyl)oxy)-1-isopropyl-4-methyl-7-oxabicyclo[2.2.1]heptan-2-one]
≥ 80%: inhibition at 1200 g/ha (Echinochloa crus-galli [1]) | inhibition at 75 g/ha [2] | inhibition at 75 g/ha (Scirpus juncoides [3]) | inhibition at 75 g/ha (Monochoria vaginalis [4]) | pest or weed control at 1200 g/ha [5] | pest or weed control at 1200 g/ha (Scirpus juncoides [6]) | inhibition at 1200 g/ha [7] | inhibition at 1200 g/ha (Scirpus juncoides [8]) | inhibition at 1200 g/ha (Monochoria vaginalis [9]) | pest or weed control at 1200 g/ha (Monochoria vaginalis [10]) | inhibition at 75 g/ha (Echinochloa crus-galli [11]) | inhibition at 75 g/ha (Digitaria ciliaris)

Cc1ccccc1CO[C@@H]1C[C@]2(C(C)C)O[C@@]1(C)CC2C (stereo partly drawn) [1-83, (1S,2R,4R)-4-isopropyl-1,5-dimethyl-2-((2-methylbenzyl)oxy)-7-oxabicyclo[2.2.1]heptane]
≥ 80%: inhibition at 1200 g/ha (Echinochloa crus-galli [1]) | inhibition at 75 g/ha [2] | inhibition at 75 g/ha (Scirpus juncoides [3]) | inhibition at 75 g/ha (Monochoria vaginalis [4]) | pest or weed control at 1200 g/ha [5] | pest or weed control at 1200 g/ha (Scirpus juncoides [6]) | inhibition at 1200 g/ha [7] | inhibition at 1200 g/ha (Scirpus juncoides [8]) | inhibition at 1200 g/ha (Monochoria vaginalis [9]) | pest or weed control at 1200 g/ha (Monochoria vaginalis [10]) | inhibition at 75 g/ha (Echinochloa crus-galli [11]) | inhibition at 75 g/ha (Digitaria ciliaris)

Cc1ccccc1CO[C@@H]1C[C@]2(C(C)C)O[C@@]1(C)CC2=O [2-3, (1R,4S,5R)-1-isopropyl-4-methyl-5-((2-methylbenzyl)oxy)-7-oxabicyclo[2.2.1]heptan-2-one]
≥ 80%: inhibition at 1200 g/ha (Echinochloa crus-galli [1]) | inhibition at 75 g/ha [2] | inhibition at 75 g/ha (Scirpus juncoides [3]) | inhibition at 75 g/ha (Monochoria vaginalis [4]) | pest or weed control at 1200 g/ha [5] | pest or weed control at 1200 g/ha (Scirpus juncoides [6]) | inhibition at 1200 g/ha [7] | inhibition at 1200 g/ha (Scirpus juncoides [8]) | inhibition at 1200 g/ha (Monochoria vaginalis [9]) | pest or weed control at 1200 g/ha (Monochoria vaginalis [10]) | inhibition at 75 g/ha (Echinochloa crus-galli [11]) | inhibition at 75 g/ha (Digitaria ciliaris)

CC(C)[C@]12C[C@@H](OCc3ccccc3F)[C@](C)(CC1OCC1CC1)O2 (mixture of isomers) [1-921, (1S,2R,4R,SR)-5-(cyclopropylmethoxy)-2-[(2-fluorophenyl)methoxy]-1-methyl-4-isopropyl-7-oxabicyclo[2.2.1]heptane]
≥ 80%: inhibition at 1200 g/ha (Echinochloa crus-galli [1]) | inhibition at 75 g/ha [2] | inhibition at 75 g/ha (Scirpus juncoides [3]) | inhibition at 75 g/ha (Monochoria vaginalis [4]) | pest or weed control at 1200 g/ha [5] | pest or weed control at 1200 g/ha (Scirpus juncoides [6]) | inhibition at 1200 g/ha [7] | inhibition at 1200 g/ha (Scirpus juncoides [8]) | inhibition at 1200 g/ha (Monochoria vaginalis [9]) | pest or weed control at 1200 g/ha (Monochoria vaginalis [10]) | inhibition at 75 g/ha (Echinochloa crus-galli [11]) | inhibition at 75 g/ha (Digitaria ciliaris)

CC(C)[C@]12C=C[C@](C)(O1)[C@H](OCc1ccccc1)C2 [3-1, (1R,4S,5R)-4-methyl-5-phenylmethoxy-1-isopropyl-7-oxabicyclo[2.2.1]hept-2-ene]
≥ 80%: inhibition at 1200 g/ha (Echinochloa crus-galli [1]) | inhibition at 75 g/ha [2] | inhibition at 75 g/ha (Scirpus juncoides [3]) | inhibition at 75 g/ha (Monochoria vaginalis [4]) | pest or weed control at 1200 g/ha [5] | pest or weed control at 1200 g/ha (Scirpus juncoides [6]) | inhibition at 1200 g/ha [7] | inhibition at 1200 g/ha (Scirpus juncoides [8]) | inhibition at 1200 g/ha (Monochoria vaginalis [9]) | pest or weed control at 1200 g/ha (Monochoria vaginalis [10]) | inhibition at 75 g/ha (Echinochloa crus-galli [11]) | inhibition at 75 g/ha (Digitaria ciliaris)

CC(C)[C@]12C[C@@H](OCc3cccc(F)c3)[C@](C)(CC1=O)O2 [2-351, (1R,4S,5R)-5-((3-fluorobenzyl)oxy)-1-isopropyl-4-methyl-7-oxabicyclo[2.2.1]heptan-2-one]
≥ 80%: inhibition at 1200 g/ha (Echinochloa crus-galli [1]) | inhibition at 75 g/ha [2] | inhibition at 75 g/ha (Scirpus juncoides [3]) | inhibition at 75 g/ha (Monochoria vaginalis [4]) | pest or weed control at 1200 g/ha [5] | pest or weed control at 1200 g/ha (Scirpus juncoides [6]) | inhibition at 1200 g/ha [7] | inhibition at 1200 g/ha (Scirpus juncoides [8]) | inhibition at 1200 g/ha (Monochoria vaginalis [9]) | pest or weed control at 1200 g/ha (Monochoria vaginalis [10]) | inhibition at 75 g/ha (Echinochloa crus-galli [11]) | inhibition at 75 g/ha (Digitaria ciliaris)

C=CCO[C@@H]1C[C@]2(C)O[C@@]1(C(C)C)C[C@H]2OCc1ccccc1F [1-930, (1S,2R,4R,5R)-2-[(2-fluorophenyl)methoxy]-1-methyl-4-isopropyl-5-prop-2-enoxy-7-oxabicyclo[2.2.1]heptane]
≥ 80%: inhibition at 1200 g/ha (Echinochloa crus-galli [1]) | inhibition at 75 g/ha [2] | inhibition at 75 g/ha (Scirpus juncoides [3]) | inhibition at 75 g/ha (Monochoria vaginalis [4]) | pest or weed control at 1200 g/ha [5] | pest or weed control at 1200 g/ha (Scirpus juncoides [6]) | inhibition at 1200 g/ha [7] | inhibition at 1200 g/ha (Scirpus juncoides [8]) | inhibition at 1200 g/ha (Monochoria vaginalis [9]) | pest or weed control at 1200 g/ha (Monochoria vaginalis [10]) | inhibition at 75 g/ha (Echinochloa crus-galli [11]) | inhibition at 75 g/ha (Digitaria ciliaris)

CC(C)[C@]12C[C@@H](OCc3ccccc3)[C@](C)(C[C@@H]1Br)O2 [1-15, (1S,2R,4R,5S)-5-bromo-1-methyl-2-phenylmethoxy-4-isopropyl-7-oxabicyclo[2.2.1]heptane]
≥ 80%: inhibition at 1200 g/ha (Echinochloa crus-galli [1]) | inhibition at 75 g/ha [2] | inhibition at 75 g/ha (Scirpus juncoides [3]) | inhibition at 75 g/ha (Monochoria vaginalis [4]) | pest or weed control at 1200 g/ha [5] | pest or weed control at 1200 g/ha (Scirpus juncoides [6]) | inhibition at 1200 g/ha [7] | inhibition at 1200 g/ha (Scirpus juncoides [8]) | inhibition at 1200 g/ha (Monochoria vaginalis [9]) | pest or weed control at 1200 g/ha (Monochoria vaginalis [10]) | inhibition at 75 g/ha (Echinochloa crus-galli [11]) | inhibition at 75 g/ha (Digitaria ciliaris)

CC(C)[C@]12C[C@@H](OCc3ccccc3F)[C@](C)(CC1C)O2 (stereo partly drawn) [1-92, (1S,2R,4R)-2-((2-fluorobenzyl)oxy)-4-isopropyl-1,5-dimethyl-7-oxabicyclo[2.2.1]heptane]
≥ 80%: inhibition at 1200 g/ha (Echinochloa crus-galli [1]) | inhibition at 75 g/ha [2] | inhibition at 75 g/ha (Scirpus juncoides [3]) | inhibition at 75 g/ha (Monochoria vaginalis [4]) | pest or weed control at 1200 g/ha [5] | pest or weed control at 1200 g/ha (Scirpus juncoides [6]) | inhibition at 1200 g/ha [7] | inhibition at 1200 g/ha (Scirpus juncoides [8]) | inhibition at 1200 g/ha (Monochoria vaginalis [9]) | pest or weed control at 1200 g/ha (Monochoria vaginalis [10]) | inhibition at 75 g/ha (Echinochloa crus-galli [11]) | inhibition at 75 g/ha (Digitaria ciliaris)
